Reference: US10807992B2, “Single enantiomer antiparasitic compounds” (priority 2017, dated 2020)
Read-outs that look alike come from different tables or passages of the source.

System: Aedes aegypti
Experiment: In vitro contact activity against adult mosquitoes (coated vial)
Description: Aedes aegypti (Louisiana Biologicals Inc., New Orleans, La.) eggs were allowed to hatch, close, and age between 3-5 days in an environmental chamber at 26° C., 80% humidity with light/dark cycles.
For mosquito assays, an aliquot from each compound stock was added to an acetone/triton solution to achieve the desired top doses for the study. Serial dilutions were conducted from the top dose (i.e. 50 ppm) to achieve the desired titration range for EC50 and EC90 determination. The final DMSO concentration in each test vial was 0.5%. A 459 μL aliquot of each compound formulation was transferred to a vial and vials were immediately placed on an unheated roller unit to allow for an even coating of the vial walls. The vials were loosely capped and allowed to dry for a minimum of four hours in a chemical fume hood.
For both contact and ingestion assays, five female Aedes aegypti adults were added to each vial or cage. The test vials for contact assays were held in an environmental chamber at 24° C., 80% humidity with light/dark cycles (12 hours each). The cages for mosquito ingestion assays were held in a temperature-controlled artificial feeding apparatus to allow continual access to organic bovine blood containing the desired concentration of compound. Fresh aliquots of compound-spiked bovine blood were provided daily for the duration of the study.
Mosquitoes showing no movement or mosquitoes that were knocked down were noted as dead. Results from trial 1 and trial 2 contact assays are shown in Tables 12 and 13, respectively and the results from trial 3 mosquito ingestion assay is shown in table 14.
For the mosquito contact and ingestion assays, each replicate contained 5 mosquitoes. For ease of calculation, the two replicates were added to equal a total of 10 mosquitoes.

O=C(CC(F)(F)F)N1CC2(C1)OCc1cc(C3=NS[C@@](c4cc(Cl)c(F)c(Cl)c4)(C(F)(F)F)C3)ccc12 [C1 (S) enantiomer, (S)-1-[6-[5-(3,5-dichloro-4-fluoro-phenyl)-5-(trifluoromethyl)-4H-isothiazol-3-yl]spiro[1H-isobenzofuran-3,3′-azetidine]-1′-yl]-3,3,3-trifluoro-propan-1-one]
90%: mortality at 0.2 µM (48 h, read-out: % Mortality R1 + R2, Trial 2, contact assay, dose 0.20 μM, 48 hr)
0%: mortality at 0.049 µM (0.5 h, read-out: % Mortality R1 + R2, Trial 1, contact assay, dose 0.049 μM, 0.5 Hr) | mortality at 0.2 µM (0.5 h, read-out: % Mortality R1 + R2, Trial 1, contact assay, dose 0.20 μM, 0.5 Hr) | mortality at 0.78 µM (0.5 h, read-out: % Mortality R1 + R2, Trial 1, contact assay, dose 0.78 μM, 0.5 Hr) | mortality at 3.125 µM (0.5 h, read-out: % Mortality R1 + R2, Trial 1, contact assay, dose 3.125 μM, 0.5 Hr) | mortality at 12.5 µM (0.5 h, read-out: % Mortality R1 + R2, Trial 1, contact assay, dose 12.5 μM, 0.5 Hr) | mortality at 50 µM (0.5 h, read-out: % Mortality R1 + R2, Trial 1, contact assay, dose 50 μM, 0.5 Hr) | mortality at 0.049 µM (0.5 h, read-out: % Mortality R1 + R2, Trial 2, contact assay, dose 0.049 μM, 0.5 Hr) | mortality at 0.2 µM (0.5 h, read-out: % Mortality R1 + R2, Trial 2, contact assay, dose 0.20 μM, 0.5 Hr) | mortality at 0.78 µM (0.5 h, read-out: % Mortality R1 + R2, Trial 2, contact assay, dose 0.78 μM, 0.5 Hr) | mortality at 3.125 µM (0.5 h, read-out: % Mortality R1 + R2, Trial 2, contact assay, dose 3.125 μM, 0.5 Hr) | mortality at 12.5 µM (0.5 h, read-out: % Mortality R1 + R2, Trial 2, contact assay, dose 12.5 μM, 0.5 Hr) | mortality at 50 µM (0.5 h, read-out: % Mortality R1 + R2, Trial 2, contact assay, dose 50 μM, 0.5 Hr) | mortality at 0.049 µM (1 h, read-out: % Mortality R1 + R2, Trial 1, contact assay, dose 0.049 μM, 1 hr) | mortality at 0.2 µM (1 h, read-out: % Mortality R1 + R2, Trial 1, contact assay, dose 0.20 μM, 1 hr) | mortality at 0.78 µM (1 h, read-out: % Mortality R1 + R2, Trial 1, contact assay, dose 0.78 μM, 1 hr) | mortality at 3.125 µM (1 h, read-out: % Mortality R1 + R2, Trial 1, contact assay, dose 3.125 μM, 1 hr) | mortality at 12.5 µM (1 h, read-out: % Mortality R1 + R2, Trial 1, contact assay, dose 12.5 μM, 1 hr) | mortality at 50 µM (1 h, read-out: % Mortality R1 + R2, Trial 1, contact assay, dose 50 μM, 1 hr) | mortality at 0.049 µM (1 h, read-out: % Mortality R1 + R2, Trial 2, contact assay, dose 0.049 μM, 1 hr) | mortality at 0.2 µM (1 h, read-out: % Mortality R1 + R2, Trial 2, contact assay, dose 0.20 μM, 1 hr) | mortality at 0.78 µM (1 h, read-out: % Mortality R1 + R2, Trial 2, contact assay, dose 0.78 μM, 1 hr) | mortality at 3.125 µM (1 h, read-out: % Mortality R1 + R2, Trial 2, contact assay, dose 3.125 μM, 1 hr) | mortality at 12.5 µM (1 h, read-out: % Mortality R1 + R2, Trial 2, contact assay, dose 12.5 μM, 1 hr) | mortality at 50 µM (1 h, read-out: % Mortality R1 + R2, Trial 2, contact assay, dose 50 μM, 1 hr) | mortality at 0.049 µM (6 h, read-out: % Mortality R1 + R2, Trial 1, contact assay, dose 0.049 μM, 6 hr) | mortality at 0.2 µM (6 h, read-out: % Mortality R1 + R2, Trial 1, contact assay, dose 0.20 μM, 6 hr) | mortality at 0.78 µM (6 h, read-out: % Mortality R1 + R2, Trial 1, contact assay, dose 0.78 μM, 6 hr) | mortality at 3.125 µM (6 h, read-out: % Mortality R1 + R2, Trial 1, contact assay, dose 3.125 μM, 6 hr) | mortality at 0.049 µM (6 h, read-out: % Mortality R1 + R2, Trial 2, contact assay, dose 0.049 μM, 6 hr) | mortality at 0.2 µM (6 h, read-out: % Mortality R1 + R2, Trial 2, contact assay, dose 0.20 μM, 6 hr) | mortality at 0.78 µM (6 h, read-out: % Mortality R1 + R2, Trial 2, contact assay, dose 0.78 μM, 6 hr) | mortality at 3.125 µM (6 h, read-out: % Mortality R1 + R2, Trial 2, contact assay, dose 3.125 μM, 6 hr) | mortality at 0.049 µM (12 h, read-out: % Mortality R1 + R2, Trial 1, contact assay, dose 0.049 μM, 12 hr) | mortality at 0.2 µM (12 h, read-out: % Mortality R1 + R2, Trial 1, contact assay, dose 0.20 μM, 12 hr) | mortality at 0.78 µM (12 h, read-out: % Mortality R1 + R2, Trial 1, contact assay, dose 0.78 μM, 12 hr) | mortality at 0.049 µM (12 h, read-out: % Mortality R1 + R2, Trial 2, contact assay, dose 0.049 μM, 12 hr) | mortality at 0.78 µM (12 h, read-out: % Mortality R1 + R2, Trial 2, contact assay, dose 0.78 μM, 12 hr) | mortality at 0.049 µM (24 h, read-out: % Mortality R1 + R2, Trial 1, contact assay, dose 0.049 μM, 24 hr) | mortality at 0.2 µM (24 h, read-out: % Mortality R1 + R2, Trial 1, contact assay, dose 0.20 μM, 24 hr) | mortality at 0.78 µM (24 h, read-out: % Mortality R1 + R2, Trial 1, contact assay, dose 0.78 μM, 24 hr) | mortality at 0.049 µM (24 h, read-out: % Mortality R1 + R2, Trial 2, contact assay, dose 0.049 μM, 24 hr) | mortality at 0.78 µM (24 h, read-out: % Mortality R1 + R2, Trial 2, contact assay, dose 0.78 μM, 24 hr) | mortality at 0.049 µM (48 h, read-out: % Mortality R1 + R2, Trial 1, contact assay, dose 0.049 μM, 48 hr) | mortality at 0.049 µM (48 h, read-out: % Mortality R1 + R2, Trial 2, contact assay, dose 0.049 μM, 48 hr)
30%: mortality at 12.5 µM (6 h, read-out: % Mortality R1 + R2, Trial 1, contact assay, dose 12.5 μM, 6 hr) | mortality at 0.2 µM (24 h, read-out: % Mortality R1 + R2, Trial 2, contact assay, dose 0.20 μM, 24 hr)
10%: mortality at 12.5 µM (6 h, read-out: % Mortality R1 + R2, Trial 2, contact assay, dose 12.5 μM, 6 hr) | mortality at 3.125 µM (12 h, read-out: % Mortality R1 + R2, Trial 1, contact assay, dose 3.125 μM, 12 hr) | mortality at 0.2 µM (12 h, read-out: % Mortality R1 + R2, Trial 2, contact assay, dose 0.20 μM, 12 hr) | mortality at 0.2 µM (48 h, read-out: % Mortality R1 + R2, Trial 1, contact assay, dose 0.20 μM, 48 hr) | mortality at 0.78 µM (48 h, read-out: % Mortality R1 + R2, Trial 1, contact assay, dose 0.78 μM, 48 hr)
70%: mortality at 12.5 µM (12 h, read-out: % Mortality R1 + R2, Trial 1, contact assay, dose 12.5 μM, 12 hr)
60%: mortality at 3.125 µM (24 h, read-out: % Mortality R1 + R2, Trial 1, contact assay, dose 3.125 μM, 24 hr)
20%: mortality at 3.125 µM (12 h, read-out: % Mortality R1 + R2, Trial 2, contact assay, dose 3.125 μM, 12 hr)
100%: mortality at 50 µM (6 h, read-out: % Mortality R1 + R2, Trial 1, contact assay, dose 50 μM, 6 hr) | mortality at 50 µM (6 h, read-out: % Mortality R1 + R2, Trial 2, contact assay, dose 50 μM, 6 hr) | mortality at 50 µM (12 h, read-out: % Mortality R1 + R2, Trial 1, contact assay, dose 50 μM, 12 hr) | mortality at 12.5 µM (12 h, read-out: % Mortality R1 + R2, Trial 2, contact assay, dose 12.5 μM, 12 hr) | mortality at 50 µM (12 h, read-out: % Mortality R1 + R2, Trial 2, contact assay, dose 50 μM, 12 hr) | mortality at 12.5 µM (24 h, read-out: % Mortality R1 + R2, Trial 1, contact assay, dose 12.5 μM, 24 hr) | mortality at 50 µM (24 h, read-out: % Mortality R1 + R2, Trial 1, contact assay, dose 50 μM, 24 hr) | mortality at 3.125 µM (24 h, read-out: % Mortality R1 + R2, Trial 2, contact assay, dose 3.125 μM, 24 hr) | mortality at 12.5 µM (24 h, read-out: % Mortality R1 + R2, Trial 2, contact assay, dose 12.5 μM, 24 hr) | mortality at 50 µM (24 h, read-out: % Mortality R1 + R2, Trial 2, contact assay, dose 50 μM, 24 hr) | mortality at 3.125 µM (48 h, read-out: % Mortality R1 + R2, Trial 1, contact assay, dose 3.125 μM, 48 hr) | mortality at 12.5 µM (48 h, read-out: % Mortality R1 + R2, Trial 1, contact assay, dose 12.5 μM, 48 hr) | mortality at 50 µM (48 h, read-out: % Mortality R1 + R2, Trial 1, contact assay, dose 50 μM, 48 hr) | mortality at 0.78 µM (48 h, read-out: % Mortality R1 + R2, Trial 2, contact assay, dose 0.78 μM, 48 hr) | mortality at 3.125 µM (48 h, read-out: % Mortality R1 + R2, Trial 2, contact assay, dose 3.125 μM, 48 hr) | mortality at 12.5 µM (48 h, read-out: % Mortality R1 + R2, Trial 2, contact assay, dose 12.5 μM, 48 hr) | mortality at 50 µM (48 h, read-out: % Mortality R1 + R2, Trial 2, contact assay, dose 50 μM, 48 hr)
